Measurements from article PMC11882969 (Nature Communications, 2025).
Values joined by “and” are separate entries in the source; they are usually repeats but may differ in a detail not shown here. Equal values may be shown once.

Biological target: hCB1 (Homo sapiens, UniProt P21554)
Experiment: bioSensAll ebBRET signaling profiling, hCB1
Format: cell-based
Set-up: host or cells: HEK293SL cells, transient PEI transfection
Conditions: for Gi1 hCB1 response: Gi1 biosensor; for Gi1 hCB1 / GoB hCB1: single replicate values, FigS6a

Chain of hCB1 (P21554 whole entry): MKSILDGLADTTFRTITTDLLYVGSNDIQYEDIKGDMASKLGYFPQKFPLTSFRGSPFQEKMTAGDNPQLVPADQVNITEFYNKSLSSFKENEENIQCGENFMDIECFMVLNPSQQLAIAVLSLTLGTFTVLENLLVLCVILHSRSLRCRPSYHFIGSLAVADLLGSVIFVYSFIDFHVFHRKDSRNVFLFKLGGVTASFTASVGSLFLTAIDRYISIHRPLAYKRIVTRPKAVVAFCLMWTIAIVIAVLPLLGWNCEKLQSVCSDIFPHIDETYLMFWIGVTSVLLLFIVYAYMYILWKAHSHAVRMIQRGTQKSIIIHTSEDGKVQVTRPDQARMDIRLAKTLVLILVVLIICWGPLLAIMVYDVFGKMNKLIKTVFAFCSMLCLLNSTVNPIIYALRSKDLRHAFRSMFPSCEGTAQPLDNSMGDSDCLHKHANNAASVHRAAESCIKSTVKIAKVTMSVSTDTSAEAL

Cc1cc(C(=O)N2CC3(CCC3)[C@@H]2[C@H]2CCCO2)nn1-c1cccc(C(F)(F)F)c1 (single isomer, unassigned) [compound 430]
Gi1 hCB1 response (Log [Compound] (M) -4.22186): 4.286
Gi1 hCB1 response (Log [Compound] (M) -4.63927): -17.6928
Gi1 hCB1 response (Log [Compound] (M) -5.05788): -21.811
Gi1 hCB1 response (Log [Compound] (M) -5.47381): -11.1127
Gi1 hCB1 response (Log [Compound] (M) -5.89285): -12.5003
Gi1 hCB1 response (Log [Compound] (M) -6.31878): -6.681
Gi1 hCB1 response (Log [Compound] (M) -6.72585): 6.524
Gi1 hCB1 response (Log [Compound] (M) -7.14267): -2.6525
Gi1 hCB1 response (Log [Compound] (M) -7.55284): 0.7047
Gi1 hCB1 response (Log [Compound] (M) -8): -4.174
Gi1 hCB1 response (Log [Compound] (M) -8.22186): 0.4361
Gi1 hCB1 response (Log [Compound] (M) -8.39794): -4.779
Gi1 hCB1 response (Log [Compound] (M) -8.68787): 4.89
Gi1 hCB1 response (Log [Compound] (M) -9.15521): -2.764
Gi1 hCB1 response (Log [Compound] (M) -9.61989): -2.876
Gi1 hCB1 response (Log [Compound] (M) -10.0969): -2.115
Gi1 hCB1 response (Log [Compound] (M) -10.5529): 4.689
Gi1 hCB1 response (Log [Compound] (M) -11.0177): -4.667
Gi1 hCB1 response (Log [Compound] (M) -11.4949): -5.853
Gi1 hCB1 response (Log [Compound] (M) -11.9208): -0.9963
Gi1 hCB1 response (Log [Compound] (M) -12.3979): 1.4433
Gi1 hCB1 response (Log [Compound] (M) -12.8861): -2.25
Gi1 hCB1 response (Log [Compound] (M) -13, individual replicate values): 4.375 and -8.248
Gi1 hCB1 (Log [Compound] (M) -4.22186): 3.789
GoB hCB1 (Log [Compound] (M) -4.22186): 6.14
Gi1 hCB1 (Log [Compound] (M) -4.63927): -1.761
GoB hCB1 (Log [Compound] (M) -4.63927): -3.176
Gi1 hCB1 (Log [Compound] (M) -5.05788): -2.054
GoB hCB1 (Log [Compound] (M) -5.05788): -0.4061
Gi1 hCB1 (Log [Compound] (M) -5.47381): 0.08902
GoB hCB1 (Log [Compound] (M) -5.47381): 1.896
Gi1 hCB1 (Log [Compound] (M) -5.89285): 0.7519
GoB hCB1 (Log [Compound] (M) -5.89285): 0.547
Gi1 hCB1 (Log [Compound] (M) -6.31878): 0.1815
GoB hCB1 (Log [Compound] (M) -6.31878): 1.86
Gi1 hCB1 (Log [Compound] (M) -6.72585): 1.1836
GoB hCB1 (Log [Compound] (M) -6.72585): 4.665
Gi1 hCB1 (Log [Compound] (M) -7.14267): 0.9678
GoB hCB1 (Log [Compound] (M) -7.14267): 2.363
Gi1 hCB1 (Log [Compound] (M) -7.55284): 0.274
GoB hCB1 (Log [Compound] (M) -7.55284): 5.3306
Gi1 hCB1 (Log [Compound] (M) -8): 0.5207
GoB hCB1 (Log [Compound] (M) -8): 3.155
Gi1 hCB1 (Log [Compound] (M) -8.22186): 0.08902
GoB hCB1 (Log [Compound] (M) -8.22186): -0.8557
Gi1 hCB1 (Log [Compound] (M) -8.39794): 1.23
GoB hCB1 (Log [Compound] (M) -8.39794): 3.334
Gi1 hCB1 (Log [Compound] (M) -8.68787): 1.214
GoB hCB1 (Log [Compound] (M) -8.68787): -1.521
Gi1 hCB1 (Log [Compound] (M) -9.15521): 1.245
GoB hCB1 (Log [Compound] (M) -9.15521): -0.6579
Gi1 hCB1 (Log [Compound] (M) -9.61989): 2.463
GoB hCB1 (Log [Compound] (M) -9.61989): 0.4211
Gi1 hCB1 (Log [Compound] (M) -10.0969): 1.338
GoB hCB1 (Log [Compound] (M) -10.0969): -1.125
Gi1 hCB1 (Log [Compound] (M) -10.5529): 0.1353
GoB hCB1 (Log [Compound] (M) -10.5529): -0.9456
Gi1 hCB1 (Log [Compound] (M) -11.0177): 0.5053
GoB hCB1 (Log [Compound] (M) -11.0177): 3.37
Gi1 hCB1 (Log [Compound] (M) -11.4949): 0.5207
GoB hCB1 (Log [Compound] (M) -11.4949): 5.385
Gi1 hCB1 (Log [Compound] (M) -11.9208): 1.523
GoB hCB1 (Log [Compound] (M) -11.9208): 2.741
Gi1 hCB1 (Log [Compound] (M) -12.3979): 0.7674
GoB hCB1 (Log [Compound] (M) -12.3979): 3.263
Gi1 hCB1 (Log [Compound] (M) -12.8861): 0.2586
GoB hCB1 (Log [Compound] (M) -12.8861): 4.072
Gi1 hCB1 (Log [Compound] (M) -13): 1.954 and 3.465
GoB hCB1 (Log [Compound] (M) -13): 3.838 and 3.119
